Results on 14 molecules are retold here after publication PMC10385865, “Synthesis and Anticancer Activity of Novel Dual Inhibitors of Human Protein Kinases CK2 and PIM-1” (Pharmaceutics, 2023).

The target of test [1] is CK2. Further details: method as in PMID 33807474. Conditions: Figure 1, representative CK2 inhibitors; cited from earlier work.
For test [2], the system named is Vero cells. Kind of test: MTT-based viability assay, non-cancerous Vero cells. In kind it is cell-based, Cercopithecus aethiops. The note with it: Chlorocebus sabaeus, MTT, 48 h, read-out: IC50 Vero. As to the method:
(§1) After incubation with the tested compounds, an MTT test was performed as described previously. Optical densities were measured at 570 nm using a BioTek microplate reader (BioTek Instruments, Inc., Winooski, VT, USA). All measurements were carried out in a minimum of three biological replicates.
(§2) . The IC50 values describing the half-maximal effective concentration of each tested compound were calculated and are summarized in Table 2. […].
A general note: Formazan colour is commonly taken as a measure of viable cells.

In test [3] the test system is CCRF-CEM (acute lymphoblastic leukemia). Briefly: MTT-based viability assay, CCRF-CEM. The note with it: for IC50: Homo sapiens, CCRF-CEM, MTT, 48 h, read-out: IC50 CCRF-CEM; for SI (selectivity index) CCRF-CEM: IC50 Vero/IC50 cancer cells. In kind it is cell-based, human. As to the method:
as §1, §2

Test [4] has as its target T1, human CK2α (Homo sapiens, UniProt P68400).
T1 construct: made in house
Kind of test: P81 filter isotopic (radiometric) kinase assay, CK2 catalytic subunit. In kind it is biochemical. Conditions: substrate peptide […], Ki from IC50 by Cheng–Prusoff. On the procedure:
(§3) The obtained compounds were tested for their inhibitory activity toward human CK2α, human CK2 holoenzyme, and PIM-1 using a P81 filter isotopic assay as described previously. […] The experimental data were fitted to the sigmoidal dose–response equation, i.e., (variable slope) Y = Bottom + (Top-Bottom)/(1 + 10^((LogIC50−X)∗HillSlope), in GraphPad Prism (Prism 9, v. 9.0.1).
(§4) Inhibition of the human CK2 catalytic subunit (CK2α), CK2 holoenzyme (CK2α2β2), and PIM-1 by the newly obtained compounds was evaluated using a radiometric assay (Table 1, Figure S2). The synthetic peptide […] was used as the substrate of CK2, and peptide […] was used as the substrate of PIM-1. The values of the inhibition constant (Ki) were calculated using the Cheng–Prusoff equation: Ki = IC50/(1 + [S]/Km).

Test [5] concerns the target T2, PIM-1 (Homo sapiens, UniProt P11309).
T2 construct: made in house
Briefly: P81 filter isotopic (radiometric) kinase assay, PIM-1. The note with it: substrate peptide […], Ki from IC50 by Cheng–Prusoff. In kind it is biochemical. As to the method: as §3, §4

Test [6] has as its system MCF-7 (breast carcinoma). Briefly: MTT-based viability assay, MCF-7. The note with it: for IC50: Homo sapiens, MCF7, MTT, 48 h, read-out: IC50 MCF-7; for SI (selectivity index) MCF-7: IC50 Vero/IC50 cancer cells. In kind it is cell-based, human. As to the method: as §1, §2
Test [7] concerns the target T3, human CK2 holoenzyme (CK2α2β2) (Homo sapiens, UniProt P68400).
T3 construct: made in house
Kind of test: P81 filter isotopic (radiometric) kinase assay, CK2 holoenzyme. In kind it is biochemical. Conditions: substrate peptide […], Ki from IC50 by Cheng–Prusoff. As to the method: as §3, §4

In test [8] the test system is K-562 (chronic myelogenous leukemia). Briefly: MTT-based viability assay, K-562. In kind it is cell-based, human. Conditions: for IC50: Homo sapiens, K562, MTT, 48 h, read-out: IC50 K-562; for SI (selectivity index) K-562: IC50 Vero/IC50 cancer cells. As to the method: as §1, §2
The target of test [9] is PIM1. Details: method as in PMID 23360763, PMID 24442476, PMID 34200807. The note with it: Figure 1, dual CK2/PIM-1 inhibitors; cited from earlier work.
In test [10] the target is CK2-α. Further details: method as in PMID 23360763, PMID 24442476, PMID 34200807. The note with it: Figure 1, dual CK2/PIM-1 inhibitors; cited from earlier work.

T2 sequence (P11309 whole entry): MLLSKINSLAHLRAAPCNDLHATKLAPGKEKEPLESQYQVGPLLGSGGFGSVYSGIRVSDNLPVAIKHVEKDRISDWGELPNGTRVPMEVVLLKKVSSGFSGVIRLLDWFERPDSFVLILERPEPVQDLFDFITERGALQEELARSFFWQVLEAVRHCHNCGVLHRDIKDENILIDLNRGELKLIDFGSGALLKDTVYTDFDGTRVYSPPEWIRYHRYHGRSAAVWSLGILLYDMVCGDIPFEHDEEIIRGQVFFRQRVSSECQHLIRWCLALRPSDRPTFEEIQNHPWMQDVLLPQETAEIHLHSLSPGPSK
T1 sequence (P68400 whole entry): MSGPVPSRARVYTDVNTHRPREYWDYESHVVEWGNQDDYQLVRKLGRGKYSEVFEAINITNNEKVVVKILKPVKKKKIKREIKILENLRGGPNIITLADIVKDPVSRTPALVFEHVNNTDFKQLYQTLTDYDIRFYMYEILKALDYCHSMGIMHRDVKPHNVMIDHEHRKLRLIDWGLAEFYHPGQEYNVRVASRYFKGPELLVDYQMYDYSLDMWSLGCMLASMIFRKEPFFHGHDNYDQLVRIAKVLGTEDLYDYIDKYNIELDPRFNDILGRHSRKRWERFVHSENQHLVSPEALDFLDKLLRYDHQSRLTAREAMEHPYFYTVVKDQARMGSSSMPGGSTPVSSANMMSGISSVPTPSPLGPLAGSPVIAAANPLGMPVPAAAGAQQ
T3 sequence (P68400 whole entry): as above
T3 sequence (P67870 whole entry partner): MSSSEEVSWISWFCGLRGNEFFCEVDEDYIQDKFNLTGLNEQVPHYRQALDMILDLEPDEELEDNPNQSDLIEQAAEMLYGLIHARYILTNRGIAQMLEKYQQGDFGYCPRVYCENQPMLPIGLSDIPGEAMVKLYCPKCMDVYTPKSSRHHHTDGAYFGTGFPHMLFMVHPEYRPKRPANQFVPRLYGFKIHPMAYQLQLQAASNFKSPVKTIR

As usually defined, the Ki is the dissociation constant of the complex between target and ligand, obtained from inhibition or displacement. Consider “4,5,6,7-tetrabromo-2,3-dihydro-1H-1,3-benzodiazol-2-one [Compound K37]”, for which, in [1], the Ki is 70 nM.
By IC50 is commonly meant the concentration needed to halve the response being measured. As for `CC(O)CNc1nc2c(Br)c(Br)c(Br)c(Br)c2[nH]1` (racemic) [rac-5, 1-[(4,5,6,7-Tetrabromo-1H-benzimidazol-2-yl)amino]propan-2-ol], the IC50 in test [2] was determined as 22.58 ± 0.13 µM; in test [3] it was 21.7 ± 0.86 µM; in [6] it was 16.9 ± 0.3 µM; in test [8], 38.7 ± 8.08 µM. For the same molecule, the “SI (selectivity index) CCRF-CEM” value in test [3] was 1.04. Also, the results for the Ki in test [4], in test [5] and in test [7] were 296 nM, 64 nM and 127 nM, respectively. The “SI (selectivity index) MCF-7” value in test [6] was determined as 1.34. Further, the “SI (selectivity index) K-562” value in [8] is given as 0.58.
As to `CCN(CC)CC(O)CNc1nc2c(Br)c(Br)c(Br)c(Br)c2[nH]1` (racemic) [rac-9, 1-(Diethylamino)-3-[(4,5,6,7-tetrabromo-1H-benzimidazol-2-yl)amino]propan-2-ol], the IC50 in test [2] came to 12 ± 0.21 µM; in test [3] it was 13.6 ± 0.84 µM; in [6] it was 10.8 ± 0.23 µM; in test [8], 11.6 ± 2.85 µM. Besides, the “SI (selectivity index) CCRF-CEM” value in test [3] was determined as 0.88. In addition, the Ki in test [4] was determined as 1670 nM; in [5] it was 267 nM; in test [7], 605 nM. In test [6], the “SI (selectivity index) MCF-7” value amounted to 1.11. Besides, the “SI (selectivity index) K-562” value in test [8] stood at 1.03.
For `OCC(O)CNc1nc2c(Br)c(Br)c(Br)c(Br)c2[nH]1` (racemic) [rac-11, 3-[(4,5,6,7-Tetrabromo-1H-benzimidazol-2-yl)amino]propane-1,2-diol], the IC50 in test [2] is 41.53 ± 0.1 µM; in [3], 33.8 ± 0.26 µM; in test [6] it was 17.2 ± 0.39 µM; in test [8], 41.5 ± 8.45 µM. The “SI (selectivity index) CCRF-CEM” value in test [3] is on record as 1.23. In addition, the Ki in test [4] is 151 nM; in test [5], 73 nM; in [7], 89 nM. Besides, in [6], the “SI (selectivity index) MCF-7” value came to 2.41. Moreover, the “SI (selectivity index) K-562” value in test [8] was found to be 1.00.
With `C[C@@H](O)CNc1nc2c(Br)c(Br)c(Br)c(Br)c2[nH]1` [(R)-5, (2R)-1-[(4,5,6,7-tetrabromo-1H-benzimidazol-2-yl)amino]propan-2-ol], the IC50 in [2] came to 28.3 ± 0.43 µM; in [3] it was 22.31 ± 0.1 µM; in test [6] it was 16.1 ± 0.19 µM; in test [8] it was 39.6 ± 8.11 µM. Moreover, in [3], the “SI (selectivity index) CCRF-CEM” value amounted to 1.27. For the same molecule, the Ki in test [4] came to 394 nM; in test [5] it was 89 nM; in test [7], 104 nM. Besides, the “SI (selectivity index) MCF-7” value in test [6] was found to be 1.76. Also, the “SI (selectivity index) K-562” value in test [8] is on record as 0.71.
On to `C[C@H](O)CNc1nc2c(Br)c(Br)c(Br)c(Br)c2[nH]1` [(S)-5, (2S)-1-[(4,5,6,7-tetrabromo-1H-benzimidazol-2-yl)amino]propan-2-ol], for which the concentration for half-maximal inhibition (IC50) in [2] was found to be 25.2 ± 0.54 µM; in test [3] it was 23.2 ± 4.01 µM; in [6], 16.6 ± 0.3 µM; in test [8], 39.3 ± 9.05 µM. Also, in [3], the “SI (selectivity index) CCRF-CEM” value stood at 1.11. In addition, the Ki in [4] is 271 nM; in [5], 99 nM; in [7], 167 nM. Besides, the “SI (selectivity index) MCF-7” value in [6] is 1.52. Also, the “SI (selectivity index) K-562” value in test [8] is on record as 0.64.
Regarding `OCCCNc1nc2c(Br)c(Br)c(Br)c(Br)c2[nH]1` [Compound 7, 3-[(4,5,6,7-Tetrabromo-1H-benzimidazol-2-yl)amino]propan-1-ol], the 50% inhibitory concentration (IC50) in [2] amounted to 29.46 ± 0.12 µM; in test [3], 25.6 ± 0.54 µM; in test [6], 18.2 ± 0.3 µM; in [8] it was 33.7 ± 4.92 µM. Moreover, the “SI (selectivity index) CCRF-CEM” value in test [3] is 1.15. For the same molecule, the Ki in test [4] amounted to 156 nM; in test [5], 82 nM; in [7], 114 nM. Besides, the “SI (selectivity index) MCF-7” value in [6] is recorded as 1.62. In [8], the “SI (selectivity index) K-562” value was found to be 0.87.
For `CN(CCO)c1nc2c(Br)c(Br)c(Br)c(Br)c2[nH]1` [Compound 8, 2-[Methyl(4,5,6,7-tetrabromo-1H-benzimidazol-2-yl)amino]ethanol], the IC50 in test [2] worked out at 16.1 ± 0.27 µM; in [3] it was 17.4 ± 0.27 µM; in test [6], 15.1 ± 0.39 µM; in test [8], 40 ± 7.45 µM. In addition, in [3], the “SI (selectivity index) CCRF-CEM” value was found to be 0.92. In addition, the Ki stood at 256 nM in test [4], 71 nM in test [5] and 72 nM in test [7]. Also, the “SI (selectivity index) MCF-7” value in test [6] is listed as 1.06. In addition, in [8], the “SI (selectivity index) K-562” value was 0.40.
For `OCC(CO)Nc1nc2c(Br)c(Br)c(Br)c(Br)c2[nH]1` [Compound 10, 2-[(4,5,6,7-Tetrabromo-1H-benzimidazol-2-yl)amino]propane-1,3-diol], the IC50 came to 25.19 ± 0.1 µM in [2], 24.47 ± 0.21 µM in [3], 16.6 ± 0.23 µM in [6] and 38.1 ± 5.56 µM in [8]. The “SI (selectivity index) CCRF-CEM” value in test [3] stood at 1.03. Also, the Ki came out at 139 nM in test [4], 93 nM in test [5] and 124 nM in test [7]. For the same molecule, the “SI (selectivity index) MCF-7” value in [6] is 1.51. For the same molecule, the “SI (selectivity index) K-562” value in [8] stood at 0.66.
Take `O=c1[nH]c2c(Br)c(Br)c(Br)c(Br)c2[nH]1` [Compound K32, 4,5,6,7-tetrabromo-2,3-dihydro-1H-1,3-benzodiazol-2-one]: the Ki in [1] is 150 nM.
With `OC[C@H]1O[C@@H](n2cnc3cc(Cl)c(Cl)cc32)[C@H](O)[C@@H]1O` [DRB, 5,6-dichloro-1-β-D-ribofuranosylbenzimidazole], in test [1], the Ki is 23000 nM.
For the molecule `Cc1nc2c(Br)c(Br)c(Br)c(Br)c2n1CCCO` [N^1-PrOH-2-MeTBBi, 3-(4,5,6,7-tetrabromo-2-methyl-1H-1,3-benzodiazol-1-yl)propan-1-ol], the inhibitory constant (Ki) in test [9] was 150 nM; in test [10] it was 50 nM.
With `Brc1c(Br)c(Br)c2[nH]cnc2c1Br` [TBBi, 4,5,6,7-tetrabromo-1H-benzimidazole], the inhibitory constant (Ki) in test [1] was 300 nM.
`OC[C@H]1O[C@@H](n2cnc3c(Br)c(Br)c(Br)c(Br)c32)C[C@@H]1O` [TDB (K164), 1-(β-D-2′-deoxyribofuranosyl)-4,5,6,7-tetrabromo-1H-benzimidazole]: in test [9], the inhibitory constant (Ki) was 40 nM.
